Columns and labels:
topoisomerase II alpha = topoisomerase II alpha (Homo sapiens, UniProt P11388); assay: Affinity precipitation with biotinylated purine analogue 2 from HL-60 nuclear extracts; type: binding; design: endogenous in cells; host or cells: HL-60 nuclear extract; details: 1 μM biotinylated analogue 2; competitor in excess (10 μM), QAP 1 also at equimolar concentration
Experimental: (§1) Topoisomerase II α and β were affinity precipitated with biotinylated inhibitor as follows. Exponentially growing HL-60 cells were collected on ice and incubated with hypotonic buffer (10 mM HEPES pH 7.5, 1.5 mM MgCl2, 10 mM KCl, 0.5 mM DTT, 0.5 mM PMSF, 1× protease inhibitor cocktail (Complete Mini, Roche Diagnostics GmbH)) for 15 minutes, then 0.6% v/v NP-40 was added and cells were disrupted using a Dounce homogenizer. Lysates were transferred to 1.5 ml Protein LoBind Eppendorf tubes and nuclei were collected after centrifugation at 8000 rpm for 10 minutes and washed twice with hypotonic buffer. To extract and release chromatin associated topoisomerase II nuclei were incubated for 30 minutes in DNAse buffer (20 mM Tris HCl pH 7.5, 5 mM MgCl2, 1 mM CaCl2, 25 mM NaCl, 0.5 mM EDTA, 1% NP-40, 1 mM DTT, 1 × protease inhibitor cocktail, 0.1 mM PMSF) containing 40 U DNAse I (Roche Diagnostics GmbH) followed by addition of twice concentrated nuclear extraction buffer (20 mM HEPES pH 7.5, 3 mM MgCl2, 20 mM KCl, 50 mM β-glycerophosphate, 840 mM NaCl, 1 mM EDTA, 50 mM PNPP, 1 mM DTT, 1 mM PMSF) and rotation for 1 h in the coldroom. The soluble fraction was obtained following centrifugation at 13000 rpm for 15 minutes. 25 μg nuclear extract were used for the affinity precipitation. The salt concentration was adjusted to 150 mM with nuclear extraction buffer (without NaCl) and the sample volume was toped off to 200 μl with precipitation buffer (50 mM HEPES pH 7.4, 150 mM NaCl, 25 mM β-glycerophosphate, 25 mM NaF, 5 mM EGTA, 1 mM EDTA, 15 mM PPI, 1 mM PMSF). Compounds were preincubated for 30 minutes prior addition of biotinylated purine analogue 2 for 2 h. Streptavidin agarose beads (Novagen, 69203) were washed twice with PBS, blocked for 30 minutes with PBS containing 1% BSA, washed twice with PBS and finally with precipitation buffer. 40 μl equilibrated streptavidin agarose beads were added to the sample and incubation was continued for 1 h. Beads were pelleted by centrifugation at 7000 rpm for 5 minutes and washed thrice with precipitation buffer. During the last wash the beads were transferred to a new tube and the bound fraction was released by boiling for 5 minutes in Laemmli sample buffer. Topoisomerase II α and β were detected by Western blot as described below.

HL-60 cells = assay: Proliferation assay over 72 hours; type: cell-based; details: Homo sapiens, read-out: half-maximal growth inhibitory concentration (GI50)
[1] = test system: panel of serine/threonine/tyrosine protein kinases; assay: Kinase selectivity profiling, standard panel of kinases; type: biochemical; details: in vitro, versus topoisomerase II
Text: Based on homology structural models of the target, a purine scaffold was designed interactively using the Macromodel modeling software. The designed purine scaffold was subsequently used as a substructure query to search the Novartis compound collection. Around 50 molecules were retrieved in this manner and screened in an ATPase assay using purified full length tagged human topoisomerase II alpha. […] Subsequently, we carried out kinetic analysis with QAP 1 in order to corroborate the mode of action. […] The data were analyzed by non-linear regression analysis using the equations corresponding to competitive, uncompetitive, and mixed inhibition (see Methods) and a statistical analysis (F-test; p ≤ 0.05) was carried out to identify the best model. […] A linearized representation (Eady-Hofstee) of one of these experiments is depicted in Figure 1D. To confirm the mode of action of QAP 1, inhibition studies were also carried out in the presence of different concentration of the inhibitor at different ATP concentrations and the IC50 values were determined. […] Next, QAP 1 was tested against a panel of kinases in a radiometric assay. With the exception of subtle inhibition of the Ret and c-Src tyrosine kinases no effect of the compound was observed on other kinases in the panel, even at the highest concentration tested (Table 1). […]

topoisomerase II beta = target: T1, topoisomerase II beta (Homo sapiens, UniProt Q02880); assay: Affinity precipitation with biotinylated purine analogue 2 from HL-60 nuclear extracts; type: binding; details: 1 μM biotinylated analogue 2; competitor in excess (10 μM), QAP 1 also at equimolar concentration
T1 construct: endogenous in cells; host or cells: HL-60 nuclear extract
T1 sequence (Q02880 whole entry): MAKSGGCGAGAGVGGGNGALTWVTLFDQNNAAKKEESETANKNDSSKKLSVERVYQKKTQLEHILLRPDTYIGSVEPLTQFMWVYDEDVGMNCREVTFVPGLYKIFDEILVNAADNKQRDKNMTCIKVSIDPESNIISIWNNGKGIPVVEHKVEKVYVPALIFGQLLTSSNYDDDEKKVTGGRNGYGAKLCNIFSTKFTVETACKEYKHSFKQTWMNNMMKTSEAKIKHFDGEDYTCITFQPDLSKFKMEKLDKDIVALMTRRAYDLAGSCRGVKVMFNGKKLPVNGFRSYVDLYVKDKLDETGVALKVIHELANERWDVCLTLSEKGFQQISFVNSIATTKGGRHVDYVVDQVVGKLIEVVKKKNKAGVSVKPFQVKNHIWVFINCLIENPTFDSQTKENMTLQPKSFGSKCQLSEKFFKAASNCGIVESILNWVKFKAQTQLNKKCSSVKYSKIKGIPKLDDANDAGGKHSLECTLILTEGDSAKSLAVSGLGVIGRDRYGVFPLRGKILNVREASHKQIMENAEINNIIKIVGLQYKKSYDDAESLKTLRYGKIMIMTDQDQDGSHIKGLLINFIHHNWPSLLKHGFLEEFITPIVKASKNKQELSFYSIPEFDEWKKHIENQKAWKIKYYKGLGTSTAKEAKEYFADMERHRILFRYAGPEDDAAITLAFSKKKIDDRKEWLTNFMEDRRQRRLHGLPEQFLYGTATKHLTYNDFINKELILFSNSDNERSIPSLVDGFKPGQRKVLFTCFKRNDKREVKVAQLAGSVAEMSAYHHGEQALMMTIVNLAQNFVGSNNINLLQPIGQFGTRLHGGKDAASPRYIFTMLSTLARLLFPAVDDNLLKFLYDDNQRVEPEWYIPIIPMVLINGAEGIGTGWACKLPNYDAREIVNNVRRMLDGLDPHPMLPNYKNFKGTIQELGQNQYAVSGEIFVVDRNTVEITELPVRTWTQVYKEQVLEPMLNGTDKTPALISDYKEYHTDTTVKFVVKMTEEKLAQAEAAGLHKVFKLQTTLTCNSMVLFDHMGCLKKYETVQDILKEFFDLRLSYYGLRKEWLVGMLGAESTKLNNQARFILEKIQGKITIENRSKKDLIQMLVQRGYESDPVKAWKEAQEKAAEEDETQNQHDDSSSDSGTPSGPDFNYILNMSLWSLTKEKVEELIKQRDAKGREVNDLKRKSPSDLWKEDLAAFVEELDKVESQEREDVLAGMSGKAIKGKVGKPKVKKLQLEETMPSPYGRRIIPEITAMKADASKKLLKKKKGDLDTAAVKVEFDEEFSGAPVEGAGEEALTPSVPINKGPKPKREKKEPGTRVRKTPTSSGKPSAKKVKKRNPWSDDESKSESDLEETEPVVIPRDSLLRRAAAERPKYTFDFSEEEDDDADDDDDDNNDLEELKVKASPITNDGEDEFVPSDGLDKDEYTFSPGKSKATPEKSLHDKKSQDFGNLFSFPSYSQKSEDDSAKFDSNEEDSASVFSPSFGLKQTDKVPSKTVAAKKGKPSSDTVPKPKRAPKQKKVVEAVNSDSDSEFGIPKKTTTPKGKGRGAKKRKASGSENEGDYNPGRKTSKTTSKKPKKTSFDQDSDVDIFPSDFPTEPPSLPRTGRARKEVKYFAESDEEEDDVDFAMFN
Experimental: as §1

Chain of topoisomerase II alpha (P11388 whole entry): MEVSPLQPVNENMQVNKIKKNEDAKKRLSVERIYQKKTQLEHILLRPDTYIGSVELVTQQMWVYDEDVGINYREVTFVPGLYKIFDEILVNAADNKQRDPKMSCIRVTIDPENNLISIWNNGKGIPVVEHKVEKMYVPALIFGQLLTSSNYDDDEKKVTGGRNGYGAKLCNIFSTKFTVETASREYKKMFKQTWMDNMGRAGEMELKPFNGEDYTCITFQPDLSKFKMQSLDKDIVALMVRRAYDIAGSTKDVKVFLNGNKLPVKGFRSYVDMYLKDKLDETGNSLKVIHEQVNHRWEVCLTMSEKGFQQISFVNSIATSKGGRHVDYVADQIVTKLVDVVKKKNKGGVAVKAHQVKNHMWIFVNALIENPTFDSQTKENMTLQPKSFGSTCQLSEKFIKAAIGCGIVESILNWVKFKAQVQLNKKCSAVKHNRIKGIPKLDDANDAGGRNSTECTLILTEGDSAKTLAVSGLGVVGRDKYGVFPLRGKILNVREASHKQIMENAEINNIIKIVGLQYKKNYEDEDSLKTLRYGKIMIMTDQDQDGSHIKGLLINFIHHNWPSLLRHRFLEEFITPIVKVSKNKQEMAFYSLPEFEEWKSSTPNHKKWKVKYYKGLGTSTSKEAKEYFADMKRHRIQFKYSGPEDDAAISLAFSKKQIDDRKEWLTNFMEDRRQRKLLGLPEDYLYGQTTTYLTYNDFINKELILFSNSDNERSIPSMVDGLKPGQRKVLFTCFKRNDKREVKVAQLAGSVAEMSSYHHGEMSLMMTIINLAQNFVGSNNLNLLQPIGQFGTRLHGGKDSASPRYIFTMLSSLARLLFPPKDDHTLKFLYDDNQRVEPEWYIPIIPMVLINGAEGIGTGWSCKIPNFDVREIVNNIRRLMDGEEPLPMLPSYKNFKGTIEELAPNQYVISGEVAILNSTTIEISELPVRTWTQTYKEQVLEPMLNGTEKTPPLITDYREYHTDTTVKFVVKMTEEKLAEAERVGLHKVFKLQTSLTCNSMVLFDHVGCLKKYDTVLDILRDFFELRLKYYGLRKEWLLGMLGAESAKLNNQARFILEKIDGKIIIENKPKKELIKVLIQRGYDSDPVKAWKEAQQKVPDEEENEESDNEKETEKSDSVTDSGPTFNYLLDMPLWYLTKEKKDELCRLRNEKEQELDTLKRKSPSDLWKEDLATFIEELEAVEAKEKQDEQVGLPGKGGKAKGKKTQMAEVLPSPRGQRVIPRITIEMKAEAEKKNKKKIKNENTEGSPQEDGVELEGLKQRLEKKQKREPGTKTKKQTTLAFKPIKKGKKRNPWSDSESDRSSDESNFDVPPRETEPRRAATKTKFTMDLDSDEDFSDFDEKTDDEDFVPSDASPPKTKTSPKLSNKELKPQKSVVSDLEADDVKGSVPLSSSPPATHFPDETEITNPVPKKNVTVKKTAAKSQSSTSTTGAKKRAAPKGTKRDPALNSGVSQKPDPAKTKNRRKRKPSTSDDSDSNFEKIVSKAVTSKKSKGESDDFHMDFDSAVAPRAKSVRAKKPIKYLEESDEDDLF

competition of the interaction of biotinylated purine analogue 2 with topoisomerase II alpha (topoisomerase II alpha): abolished
GI50 (HL-60 cells): 8 µM
selectivity over a standard panel of kinases [1]: greater than 10 fold
competition of the interaction of biotinylated purine analogue 2 with topoisomerase II beta (topoisomerase II beta): abolished
Compound: CCc1nc2nc(Nc3ccc4nc(OCCN5CCOCC5)ccc4c3)nc(NC(C)(C)C)c2[nH]1 [QAP 1]
